Assay results taken from US12637471B2, “Heterocyclic compounds, compositions, methods of preparation and uses thereof” (Organon R&D Finland Ltd, priority 2021, dated 2026).

Experiments:
[1] = phase II clinical trial, endometriosis; trial was terminated; cited from earlier work
[2] = target: T1, 17β-Hydroxysteroid Dehydrogenase Type 2 Enzyme (17β-HSD2) (Homo sapiens, UniProt P37059); experiment: Inhibition of the 17β-hydroxysteroid dehydrogenase type 2 enzyme, 3H-testosterone conversion; assay type: biochemical; conditions: inhibitor at 10 μM
T1 construct: made in house; host or cells: Sf-9 insect cells (baculovirus)
T1 sequence (P37059 1-387): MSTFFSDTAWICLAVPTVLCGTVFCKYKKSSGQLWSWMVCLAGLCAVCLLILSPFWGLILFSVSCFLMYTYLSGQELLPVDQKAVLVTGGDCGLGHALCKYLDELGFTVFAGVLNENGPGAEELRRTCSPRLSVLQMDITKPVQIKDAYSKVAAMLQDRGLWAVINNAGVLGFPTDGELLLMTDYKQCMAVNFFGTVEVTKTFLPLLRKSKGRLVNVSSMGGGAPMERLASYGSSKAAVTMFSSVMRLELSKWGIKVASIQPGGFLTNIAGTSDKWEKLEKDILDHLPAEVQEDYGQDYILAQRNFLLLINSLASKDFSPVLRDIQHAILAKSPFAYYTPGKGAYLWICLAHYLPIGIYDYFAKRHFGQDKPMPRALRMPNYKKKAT
How it was run: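 Single-point screen at 10 μM inhibitor, 1% DMSO: Sf-9-expressed human enzyme (105 nM), NAD 1 mM, ³H-labelled testosterone 56.25 nM, pH 8.5 phosphate/EDTA buffer, 30 min, room temperature. After TCA quench, substrate and product radioactivity quantified by UPLC with scintillation detection; inhibition percent from conversion.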

[3] = target: T2, Recombinant human AKR1C3 (17β-HSD5) protein (Homo sapiens, UniProt P42330); experiment: Inhibition of AKR1C3 (17β-hydroxysteroid dehydrogenase type 5) enzyme, fluorescence assay; assay type: biochemical; conditions: inhibitor at 500 nM
T2 construct: made in house; host or cells: E. coli
T2 sequence (P42330 1-323): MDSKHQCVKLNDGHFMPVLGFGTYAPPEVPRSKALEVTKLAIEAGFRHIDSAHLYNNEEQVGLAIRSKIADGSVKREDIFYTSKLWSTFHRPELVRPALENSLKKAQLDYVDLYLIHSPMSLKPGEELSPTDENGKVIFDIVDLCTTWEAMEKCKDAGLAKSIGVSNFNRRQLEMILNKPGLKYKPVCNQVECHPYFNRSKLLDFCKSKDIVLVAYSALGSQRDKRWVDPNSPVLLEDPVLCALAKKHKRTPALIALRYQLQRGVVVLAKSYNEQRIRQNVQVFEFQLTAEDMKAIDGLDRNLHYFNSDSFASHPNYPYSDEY
How it was run: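 Percent inhibition at 500 nM compound, derived from substrate conversion; product alcohol measured by fluorescence (ex 420, em 510 nm) against a 1 μM–10 nM standard curve. Reaction: 27 nM recombinant AKR1C3, 1 μM ketone substrate, 1 mM NADPH, phosphate/EDTA buffer pH 7.4, 1% DMSO, RT for 60–120 min.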

[4] = target: T3, Recombinant human aldo-keto reductase family 1 member C2 (AKR1C2) protein (Homo sapiens, UniProt P52895); experiment: Inhibition of the aldo-keto reductase family 1 member C2, 3H-dihydrotestosterone conversion; assay type: biochemical; conditions: inhibitor at 10 μM
T3 construct: made in house; host or cells: Sf-9 insect cells (baculovirus)
T3 sequence (P52895 1-323): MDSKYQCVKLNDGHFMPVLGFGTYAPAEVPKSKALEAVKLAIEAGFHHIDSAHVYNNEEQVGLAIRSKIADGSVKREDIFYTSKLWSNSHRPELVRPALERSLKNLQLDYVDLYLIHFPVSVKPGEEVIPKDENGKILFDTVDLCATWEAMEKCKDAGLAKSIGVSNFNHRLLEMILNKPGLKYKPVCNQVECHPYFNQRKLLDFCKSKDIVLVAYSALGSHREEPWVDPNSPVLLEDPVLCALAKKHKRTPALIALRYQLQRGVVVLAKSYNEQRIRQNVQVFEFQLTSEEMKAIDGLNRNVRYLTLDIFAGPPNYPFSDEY
How it was run: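 Single-point screen at 10 μM inhibitor, 1% DMSO: [3H]DHT (6.25 nM) reduction to 3α-diol by baculovirus-made AKR1C2 (13.6 nM), pH 7.4 phosphate buffer, 1 mM NADPH, 37 °C for 45 min. Radio-UPLC quantified product versus substrate to give percent inhibition.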

Compound | inhibition at 10 µM [2] | inhibition at 0.5 µM [3] | inhibition at 10 µM [4] | bilirubin levels of patients [1]
CN(CCC(=O)O)C(=O)c1ccc2c(c1)CC[C@@H]1[C@@H]2CC[C@]2(C)C(c3cncc(F)c3)=CC[C@@H]12 [BAY-1128688] |  |  |  | raised bilirubin levels
N#CC(=C1CCN(C(=O)N2CC[C@H](O)C2)CC1)c1ccc(F)cc1 [Compound 9, (S)-2-(4-fluorophenyl)-2-(1-(3-hydroxypyrrolidine-1-carbonyl)piperidin-4-ylidene)acetonitrile] | 13% | 89% | 4% | 
N#CC(=C1CCN(C(=O)N2CCC(O)CC2)CC1)c1ccc(Cl)cn1 [Compound 62, 2-(5-chloropyridin-2-yl)-2-(1-(4-hydroxypiperidine-1-carbonyl)piperidin-4-ylidene)acetonitrile] | 4% | 90% | -4% | 
COC1CCN(C(=O)N2CCC(=C(C#N)c3cccc(Cl)c3)CC2)CC1 [Compound 17, 2-(3-chlorophenyl)-2-(1-(4-methoxypiperidine-1-carbonyl)piperidin-4-ylidene)acetonitrile] | 31% | 98% | 8% | 
N#CC(=C1CCN(C(=O)N2CCc3nocc3C2)CC1)c1ccc(F)cc1 [Compound 12, 2-(4-fluorophenyl)-2-(1-(4,5,6,7-tetrahydroisoxazolo[4,3-c]pyridine-5-carbonyl)piperidin-4-ylidene)acetonitrile] | 8% | 99% | 19% | 
N#CC(=C1CCN(C(=O)N2C3CCC2COC3)CC1)c1ccc(F)cc1 [Compound 15, 2-(1-(3-oxa-8-azabicyclo[3.2.1]octane-8-carbonyl)piperidin-4-ylidene)-2-(4-fluorophenyl)acetonitrile] | 11% | 97% | 6% | 
COC[C@@H]1CCCN1C(=O)N1CCC(=C(C#N)c2ccc(F)cc2)CC1 [Compound 8, (S)-2-(4-fluorophenyl)-2-(1-(2-(methoxymethyl)pyrrolidine-1-carbonyl)piperidin-4-ylidene)acetonitrile] | 8% | 98% | 7% | 
N#CC(=C1CCN(C(=O)N2C3CCC2COC3)CC1)c1ccc(F)cc1F [Compound 37, 2-(1-(3-oxa-8-azabicyclo[3.2.1]octane-8-carbonyl)piperidin-4-ylidene)-2-(2,4-difluorophenyl)acetonitrile] | 25% | 96% | 14% | 
N#CC(=C1CCN(C(=O)N2CCC(O)CC2)CC1)c1cccc(Cl)c1 [Compound 80, 2-(3-chlorophenyl)-2-(1-(4-hydroxypiperidine-1-carbonyl)piperidin-4-ylidene)acetonitrile] | 12% | 99% | 7% | 
N#CC(=C1CCN(C(=O)N2CCC(CO)CC2)CC1)c1ccc(F)cc1 [Compound 19, 2-(4-fluorophenyl)-2-(1-(4-(hydroxymethyl)piperidine-1-carbonyl)piperidin-4-ylidene)acetonitrile] | 19% | 99% | 12% | 
N#CC(=C1CCN(C(=O)N2CCc3sccc3C2)CC1)c1ccc(F)c(F)c1 [Compound 35, 2-(3,4-difluorophenyl)-2-(1-(4,5,6,7-tetrahydrothieno[3,2-c]pyridine-5-carbonyl)piperidin-4-ylidene)acetonitrile] | 28% | 96% | 27% | 

Further lines, with some results ahead:

inhibition at 10 µM [2] | inhibition at 0.5 µM [3] | inhibition at 10 µM [4] | Compound | bilirubin levels of patients [1]
6% | 97% | 18% | CCOC1CCN(C(=O)N2CCC(=C(C#N)c3ccc(F)cc3F)CC2)CC1 [Compound 137, 2-(2,4-difluorophenyl)-2-(1-(4-ethoxypiperidine-1-carbonyl)piperidin-4-ylidene)acetonitrile] | 
2% | 96% | 13% | N#CC(=C1CCN(C(=O)N2CCn3ncnc3C2)CC1)c1cc(F)cc(F)c1 [Compound 166, 2-(3,5-difluorophenyl)-2-(1-(5,6,7,8-tetrahydro-[1,2,4]triazolo[1,5-a]pyrazine-7-carbonyl)piperidin-4-ylidene)acetonitrile] | 
1% | 98% | 17% | N#CC(=C1CCN(C(=O)N2CCn3nncc3C2)CC1)c1ccc(OC(F)(F)F)cc1 [Compound 162, 2-(1-(4,5,6,7-tetrahydro-[1,2,3]triazolo[1,5-a]pyrazine-5-carbonyl)piperidin-4-ylidene)-2-(4-(trifluoromethoxy)phenyl)acetonitrile] | 
8% | 99% | 2% | N#CC(=C1CCN(C(=O)N2CCn3ncnc3C2)CC1)c1cccc(Cl)c1 [Compound 157, 2-(3-chlorophenyl)-2-(1-(5,6,7,8-tetrahydro-[1,2,4]triazolo[1,5-a]pyrazine-7-carbonyl)piperidin-4-ylidene)acetonitrile] | 
15% | 99% | 6% | Cn1ncc2cccc(C(C#N)=C3CCN(C(=O)N4CCc5[nH]ncc5C4)CC3)c21 [Compound 119, 2-(1-methyl-1H-indazol-7-yl)-2-(1-(4,5,6,7-tetrahydro-1H-pyrazolo[4,3-c]pyridine-5-carbonyl)piperidin-4-ylidene)acetonitrile] | 
16% | 100% | 5% | COC1CCN(C(=O)N2CCC(=C(C#N)c3cccc4[nH]ncc34)CC2)CC1 [Compound 144, 2-(1H-indazol-4-yl)-2-(1-(4-methoxypiperidine-1-carbonyl)piperidin-4-ylidene)acetonitrile] | 
28% | 100% | 3% | COC[C@@H]1CCCN1C(=O)N1CCC(=C(C#N)c2ccc(Cl)cc2)CC1 [Compound 82, (S)-2-(4-chlorophenyl)-2-(1-(2-(methoxymethyl)pyrrolidine-1-carbonyl)piperidin-4-ylidene)acetonitrile] | 
-11% | 98% | 21% | N#CC(=C1CCN(C(=O)N2CCc3sccc3C2)CC1)c1ccc(F)cc1 [Compound 108, 2-(4-fluorophenyl)-2-(1-(4,5,6,7-tetrahydrothieno[3,2-c]pyridine-5-carbonyl)piperidin-4-ylidene)acetonitrile] | 
18% | 99% | 34% | N#CC(=C1CCN(C(=O)N2CCc3nocc3C2)CC1)c1ccc(Cl)s1 [Compound 160, 2-(5-chlorothiophen-2-yl)-2-(1-(4,5,6,7-tetrahydroisoxazolo[4,3-c]pyridine-5-carbonyl)piperidin-4-ylidene)acetonitrile] | 
5% | 98% | 11% | CCOC1CCN(C(=O)N2CCC(=C(C#N)c3cccc(Cl)c3)CC2)CC1 [Compound 129, 2-(3-chlorophenyl)-2-(1-(4-ethoxypiperidine-1-carbonyl)piperidin-4-ylidene)acetonitrile] | 
